Test results taken from ChEMBL document CHEMBL1201862, “PubChem BioAssay data set” (2004).
Active and inactive are the calls of the source.

What was measured:
[1] = target: Eukaryotic translation initiation factor 4E (Mus musculus, UniProt P63073); experiment: blockers of eIF4G binding by eIF4E – biochemical, TR-FRET, dose response (AID 855); format: functional;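 note: potency for disrupting eIF4E binding to eIF4GI seen as loss of FRET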
[2] = target: T1, Carboxy-terminal domain RNA polymerase II polypeptide A small phosphatase 1 (Homo sapiens, UniProt Q9GZU7); experiment: CTDSP1 inhibitors, concentration-response, biochemical, absorbance readout, ultra-high-throughput screen actives (AID 540297); format: functional
T1 sequence (Q9GZU7 whole entry): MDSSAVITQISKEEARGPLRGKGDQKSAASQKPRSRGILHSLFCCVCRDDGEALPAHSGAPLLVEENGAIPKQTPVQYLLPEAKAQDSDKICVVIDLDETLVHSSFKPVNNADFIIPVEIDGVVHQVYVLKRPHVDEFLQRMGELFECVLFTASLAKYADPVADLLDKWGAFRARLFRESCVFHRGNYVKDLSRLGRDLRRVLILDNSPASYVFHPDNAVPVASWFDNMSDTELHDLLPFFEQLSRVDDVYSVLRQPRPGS

[3] = A Cell Based Secondary Assay To Explore Cytotoxicity of Compounds that Sensitize Mycobacterium Tuberculosis to Beta-Lactam Antibiotics.; format: functional
Caspase-3 = target: T2, Caspase-3 (Homo sapiens, UniProt P42574); format: functional;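 note: Dose-response selectivity test against caspase-3 for candidate inhibitors of sentrin-specific proteases (SENPs)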
T2 sequence (P42574 whole entry): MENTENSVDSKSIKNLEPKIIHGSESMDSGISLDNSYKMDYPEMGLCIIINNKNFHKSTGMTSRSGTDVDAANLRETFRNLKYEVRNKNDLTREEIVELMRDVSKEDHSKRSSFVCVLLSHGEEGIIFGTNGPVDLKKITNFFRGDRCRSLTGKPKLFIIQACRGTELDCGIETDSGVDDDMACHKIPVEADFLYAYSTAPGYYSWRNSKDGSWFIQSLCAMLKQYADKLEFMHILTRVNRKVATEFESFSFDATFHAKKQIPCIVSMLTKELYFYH

[4] = target: T3, Sentrin-specific protease 7 (Homo sapiens, UniProt Q9BQF6); format: functional;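 note: Luminescence-based dose-response confirmation of ultra-high-throughput screening hits, measuring inhibition of SENP7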
T3 sequence (Q9BQF6 whole entry): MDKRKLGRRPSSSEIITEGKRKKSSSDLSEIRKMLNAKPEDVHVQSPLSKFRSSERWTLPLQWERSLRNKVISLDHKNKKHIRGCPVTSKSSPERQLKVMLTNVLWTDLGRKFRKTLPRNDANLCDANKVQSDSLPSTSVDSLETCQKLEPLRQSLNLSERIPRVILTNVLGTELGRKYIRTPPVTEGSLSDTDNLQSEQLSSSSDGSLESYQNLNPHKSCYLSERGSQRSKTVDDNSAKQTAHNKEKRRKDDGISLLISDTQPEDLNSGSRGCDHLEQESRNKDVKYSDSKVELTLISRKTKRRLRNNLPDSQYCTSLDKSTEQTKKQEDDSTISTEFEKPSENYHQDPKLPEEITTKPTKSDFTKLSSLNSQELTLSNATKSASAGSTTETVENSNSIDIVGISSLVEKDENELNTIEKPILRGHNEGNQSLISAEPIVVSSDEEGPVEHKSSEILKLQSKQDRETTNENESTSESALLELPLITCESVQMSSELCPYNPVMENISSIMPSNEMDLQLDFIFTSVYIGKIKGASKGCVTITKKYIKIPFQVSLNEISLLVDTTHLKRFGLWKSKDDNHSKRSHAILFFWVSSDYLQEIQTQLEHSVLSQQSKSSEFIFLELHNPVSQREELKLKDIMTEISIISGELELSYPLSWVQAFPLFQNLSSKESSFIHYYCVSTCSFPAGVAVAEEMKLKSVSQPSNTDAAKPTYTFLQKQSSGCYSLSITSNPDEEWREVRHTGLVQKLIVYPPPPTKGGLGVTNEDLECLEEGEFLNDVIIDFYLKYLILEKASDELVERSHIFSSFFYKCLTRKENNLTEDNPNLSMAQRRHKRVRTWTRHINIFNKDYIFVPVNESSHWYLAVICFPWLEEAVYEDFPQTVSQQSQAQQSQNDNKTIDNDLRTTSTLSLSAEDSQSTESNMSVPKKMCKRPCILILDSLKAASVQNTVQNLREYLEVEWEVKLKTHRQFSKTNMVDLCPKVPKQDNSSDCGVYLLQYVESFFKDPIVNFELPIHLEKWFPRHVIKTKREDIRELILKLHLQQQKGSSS

[5] = target: T4, Sentrin-specific protease 6 (Homo sapiens, UniProt Q9GZR1); format: functional;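 note: Luminescence-based dose-response confirmatory assay of SENP6 inhibition, following up an ultra-high-throughput screen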
T4 sequence (Q9GZR1 whole entry): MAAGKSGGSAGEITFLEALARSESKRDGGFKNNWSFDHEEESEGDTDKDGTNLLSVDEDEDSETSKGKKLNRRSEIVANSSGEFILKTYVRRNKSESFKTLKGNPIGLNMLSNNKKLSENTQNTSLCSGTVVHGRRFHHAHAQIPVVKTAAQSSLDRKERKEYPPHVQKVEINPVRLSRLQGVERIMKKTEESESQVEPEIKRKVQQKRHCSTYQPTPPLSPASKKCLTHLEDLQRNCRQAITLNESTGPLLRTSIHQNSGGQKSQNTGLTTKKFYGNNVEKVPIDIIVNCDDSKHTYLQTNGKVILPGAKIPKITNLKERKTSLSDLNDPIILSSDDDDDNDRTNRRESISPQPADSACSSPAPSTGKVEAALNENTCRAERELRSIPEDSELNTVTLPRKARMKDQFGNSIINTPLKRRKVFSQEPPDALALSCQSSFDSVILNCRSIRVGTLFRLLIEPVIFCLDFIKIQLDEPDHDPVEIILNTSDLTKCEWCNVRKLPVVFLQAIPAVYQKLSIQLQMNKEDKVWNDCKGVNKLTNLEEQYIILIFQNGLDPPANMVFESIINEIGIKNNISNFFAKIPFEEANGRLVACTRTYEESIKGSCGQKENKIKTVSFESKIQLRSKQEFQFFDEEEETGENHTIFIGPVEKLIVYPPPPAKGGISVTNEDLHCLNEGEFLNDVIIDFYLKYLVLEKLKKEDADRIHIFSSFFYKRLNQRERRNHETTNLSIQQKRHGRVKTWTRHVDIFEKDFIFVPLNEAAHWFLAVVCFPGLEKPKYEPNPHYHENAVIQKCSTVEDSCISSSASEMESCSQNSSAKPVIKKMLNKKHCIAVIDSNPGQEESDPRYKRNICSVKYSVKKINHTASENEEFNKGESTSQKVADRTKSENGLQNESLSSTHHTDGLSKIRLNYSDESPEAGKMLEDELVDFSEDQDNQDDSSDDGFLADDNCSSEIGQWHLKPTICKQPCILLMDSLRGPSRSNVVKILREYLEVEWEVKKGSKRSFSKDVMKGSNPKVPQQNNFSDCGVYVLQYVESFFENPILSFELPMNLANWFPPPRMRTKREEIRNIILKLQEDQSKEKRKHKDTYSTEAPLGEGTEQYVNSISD

[6] = target: T5, Sentrin-specific protease 8 (Homo sapiens, UniProt Q96LD8); format: functional;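 note: luminescence read-out of SENP8 inhibition, dose-response confirmation following an ultra-high-throughput screen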
T5 sequence (Q96LD8 whole entry): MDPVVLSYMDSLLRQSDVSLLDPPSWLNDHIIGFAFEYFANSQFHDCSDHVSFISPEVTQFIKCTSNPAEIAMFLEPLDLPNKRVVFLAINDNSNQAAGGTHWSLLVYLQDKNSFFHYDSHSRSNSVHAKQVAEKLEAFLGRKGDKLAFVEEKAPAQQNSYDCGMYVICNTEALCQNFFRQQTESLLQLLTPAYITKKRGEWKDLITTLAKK

P388/ADR = experiment: cells; format: functional; settings: Mus musculus
SN12K1 = experiment: cells; format: functional; settings: Homo sapiens
[7] = tested on: Streptococcus sp. 'group A'; experiment: Streptococcus pyogenes SK(-)GAS viability under kanamycin – luminescence, BacTiterGlo, confirmation, counter-screen for streptokinase expression inhibitor project, dose response (AID 1900); format: functional, organism-based
Streptokinase A = target: T6, Streptokinase A (Streptococcus pyogenes serotype M1, UniProt P10520); experiment: viability-normalized secreted streptokinase activity reduction – plasminogen activation absorbance, OD405, dose response (AID 1914); format: functional, Streptococcus pyogenes M1 GAS;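 note: secreted streptokinase activity via plasminogen activation per viability signal from cell pellet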
T6 sequence (P10520 whole entry): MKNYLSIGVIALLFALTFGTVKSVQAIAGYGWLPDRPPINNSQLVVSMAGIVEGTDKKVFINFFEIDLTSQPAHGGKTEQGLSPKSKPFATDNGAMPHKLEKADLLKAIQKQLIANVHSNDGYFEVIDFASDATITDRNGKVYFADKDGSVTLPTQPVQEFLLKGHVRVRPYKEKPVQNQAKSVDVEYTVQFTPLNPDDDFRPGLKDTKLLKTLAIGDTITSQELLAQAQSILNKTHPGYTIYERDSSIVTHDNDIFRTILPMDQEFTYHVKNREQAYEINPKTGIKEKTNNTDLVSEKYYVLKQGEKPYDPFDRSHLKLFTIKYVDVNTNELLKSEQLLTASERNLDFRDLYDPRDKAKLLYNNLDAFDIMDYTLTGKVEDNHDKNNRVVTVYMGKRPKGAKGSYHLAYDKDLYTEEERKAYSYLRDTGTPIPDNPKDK

Streptococcus = experiment: GAS UMAA2166 growth inhibition – luminescence, BacTiterGlo, counter-screen for streptokinase expression inhibitor project, dose response (AID 1915); format: functional, organism-based;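 note: potency for reduction of bacterial viability or growth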

Eukaryotic translation initiation factor 4E, sequence (P63073 whole entry, the tested form may be a part): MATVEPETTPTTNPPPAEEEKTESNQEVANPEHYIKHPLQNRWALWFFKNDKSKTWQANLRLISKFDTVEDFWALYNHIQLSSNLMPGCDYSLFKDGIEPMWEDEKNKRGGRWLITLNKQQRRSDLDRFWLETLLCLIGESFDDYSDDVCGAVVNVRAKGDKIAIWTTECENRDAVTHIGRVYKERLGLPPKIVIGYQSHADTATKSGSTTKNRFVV

SMILES	IC50 [1]	IC50 (Caspase-3)	IC50 [4]	IC50 [5]	IC50 [6]	other results
Cc1ccc(OCc2nnc(-c3ccccn3)[nH]2)cc1	> 64 µM (inactive)					
O=C(Cc1cccs1)Nc1ccc(S(=O)(=O)N2CCCC2)cc1	50 µM (inactive)					IC50 [2]: 5.04 µM (active)
CCNC(=O)CCn1nc(-c2ccc(Cl)cc2)c2ccccc2c1=O						CC50 [3]: > 40 µM (active)
O=C(Nc1ccc2ncccc2c1)c1cccc(Br)c1		32.1 µM (active)	8.67 µM (active)	29.1 µM (active)	28.7 µM (active)	
C=C1C(O)C2(O)OCC34C(CC5C(C)=CC(=O)C(O)C5(C)C23)OC(=O)C(OC(=O)C/C=C(\C)CCCCC)C14 (stereo unspecified)						GI50 (P388/ADR): 0.0933 µM (active); GI50 (SN12K1): 0.0125 µM (active)
Cc1ccc(C(=O)c2cc3ccccc3o2)cc1C		11.2 µM (active)	3.18 µM (active)	6.41 µM (active)	10.6 µM (active)	
CN(C)c1ccc(/C=N/Nc2nc3ccccc3o2)cc1		2.05 µM (active)	< 1.55 µM (active)	1.72 µM (active)	1.74 µM (active)	EC50 [7]: > 150 µM (not active); EC50 (Streptokinase A): > 150 µM (not active); EC50 (Streptococcus): > 150 µM (not active)
O=C(O)C(Oc1ccc2cc(-c3ccc(Cl)cc3)c(=O)oc2c1)c1ccccc1 (stereo unspecified)		38.3 µM (active)	28.7 µM (active)	31.3 µM (active)	31.8 µM (active)	
COc1ccc([C@H]2[C@H](C(C)=O)N3N=Cc4ccccc4C3C23C(=O)OC(C)(C)OC3=O)cc1 (stereo partly specified)	> 64 µM (inactive)					
